Measured values taken from patent US5047414A, “2-(aminoalkylthio)methyl-1,4-dihydropyridine, a method for the preparation thereof and pharmaceutical compositions containing them” (Boehringer Biochemia Robin S.p.A., priority 1986, dated 1991).
Where two headings read alike, the source gives them in different places.

Experiments:
in vivo = conditions: mouse
[1] = system: K^+ -depolarized rat aorta strips; assay: inhibition of contractile responses to increasing Ca++ concentration in K+ depolarized rat aorta strips
conscious SH rats [2] = assay: antihypertensive activity, oral, in conscious SH rats (mean blood pressure); type: in vivo; conditions: for decrease of the mean blood pressure (--BP), maximum / antihypertensive activity: conscious SH rats, oral; for decrease of the mean blood pressure (--BP), maximum: 1.6 mg/kg; for duration of antihypertensive effect (in words): SH rats
Protocol: The maximum hypotensive effect, proportional to the administered dose, takes place 5-7 hours after the administration and the blood pressure is maintained at the decreased level for further 4-5 hours, at least. […]
Dosages such as 0.2-0.4 mg/Kg are sufficient to stabilize gradually the mean B.P. to lower level for a 24 hrs period. The drop-out of the pharmacological treatment is not combined with an acute hypertensive rebound effect but in the following 2-3 days the mean blood pressure gradually rises to the initial values.

mice = assay: acute toxicity in mice (LD50, os and i.p.)
beagle dogs [3] = conditions: dog, in vivo
beagle dogs [4] = assay: tolerability in male and female beagle dogs, oral bolus administration; conditions: 1.5 mg/kg/day
conscious SH rats [5] = conditions: in the same experimental models; cited from earlier work

Row | Compound | LD50 (in vivo; ip) [mg/kg] | LD50 (in vivo; po) [mg/kg] | also measured
1 | CCOC(=O)C1=C(C)NC(CSCCN)=C(C(=O)OCC)C1c1ccccc1C(F)(F)F (centres unmarked) [Compound 3] | 5 | 9 | 
2 | CCOC(=O)C1=C(CSCCN)NC(C)=C(C(=O)OC)C1c1ccccc1[N+](=O)[O-] (centres unmarked) [Compound 4] | 2 | 3 | 
3 | CCOC(=O)C1=C(CSCCNCCC#N)NC(C)=C(C(=O)OC)C1c1cccc([N+](=O)[O-])c1 (centres unmarked) [Compound 20, 2-[2-[N-(2-cyanoethyl)aminoethyl]thio]methyl-3-ethoxycarbonyl-5-methoxycarbonyl-4-(m-nitrophenyl)-6-methyl-1,4-dihydropyridine] | 35 | 63 | 
4 | COC(=O)C1=C(C)NC(C)=C(C(=O)OC)C1c1ccccc1[N+](=O)[O-] [nifedipine] |  |  | dependence of inhibition on incubation time [1]: not related to the incubation time
5 | CCOC(=O)C1=C(CSCCCCN)NC(C)=C(C(=O)OC)C1c1cccc([N+](=O)[O-])c1 (centres unmarked) [Compound 18] | 4 | 11 | 
6 | CCOC(=O)C1=C(CSCCN)NC(C)=C(C(=O)OC)C1c1ccccc1C(F)(F)F (centres unmarked) [Compound 2] | 2 | 2 | decrease of the mean blood pressure (--BP), maximum (conscious SH rats [2]): higher than 85 mmHg
7 | CCOC(=O)C1=C(C)NC(CSCC(N)C(=O)OCC)=C(C(=O)OCC)C1c1cccc([N+](=O)[O-])c1 (centres unmarked) [Compound 32] | 354 | 763 | 
8 | CCOC(=O)C1=C(CSCCN(C)C)NC(C)=C(C(=O)OC)C1c1cccc([N+](=O)[O-])c1 (centres unmarked) [Compound 12] | 25 | 38 | decrease of the mean blood pressure (--BP), maximum (conscious SH rats [2]): higher than 85 mmHg
9 | CCOC(=O)C1=C(CSCC2CCCN2)NC(C)=C(C(=O)OC)C1c1cccc([N+](=O)[O-])c1 (centres unmarked) [Compound 16a] |  |  | LD50 in mice, i.p. (mice; mouse, in vivo, ip): 7 mg/kg; LD50 in mice, OS (mice; mouse, in vivo, po): 17 mg/kg
10 | CCOC(=O)C1=C(CSCC2CCCN2)NC(C)=C(C(=O)OC)C1c1cccc([N+](=O)[O-])c1 (centres unmarked) [Compound 16b] |  |  | LD50 in mice, i.p. (mice; mouse, in vivo, ip): 25 mg/kg; LD50 in mice, OS (mice; mouse, in vivo, po): 39 mg/kg
11 | CCOC(=O)C1=C(CSCCN)NC(C)=C(C(=O)OC)C1c1cccc([N+](=O)[O-])c1 (centres unmarked) [Compound 13] | 8 | 21 | 
12 | CCOC(=O)C1=C(CSCC2CCCN2)NC(C)=C(C(=O)OC)C1c1cccc([N+](=O)[O-])c1 (centres unmarked) [Compound 16c] |  |  | LD50 in mice, i.p. (mice; mouse, in vivo, ip): 27 mg/kg; LD50 in mice, OS (mice; mouse, in vivo, po): 55 mg/kg
13 | CCOC(=O)C1=C(CSCCN)NC(C)=C(C(=O)OC)C1c1ccc(F)cc1 (centres unmarked) [Compound 27] | 28 | 46 | 
14 | CCOC(=O)C1=C(CSCCN)NC(C)=C(C(=O)OCCN(C)Cc2ccccc2)C1c1cccc([N+](=O)[O-])c1 (centres unmarked) [Compound 23] | 32 | 91 | 
15 | CCOC(=O)C1=C(CSCCNC=O)NC(C)=C(C(=O)OC)C1c1cccc([N+](=O)[O-])c1 (centres unmarked) [Example 3, 2-(2-formylaminoethylthio)-methyl-3-ethoxycarbonyl-5-methoxycarbonyl-4-(m-nitrophenyl)-6-methyl-1.4-dihydropyridine] | 150 | 200 | acute toxicity (in words) (mice; mice where stated): low oral acute toxicity; death of dogs (beagle dogs [3]): do not die after two weeks treatment; tolerability in dogs (beagle dogs [3]): high tolerability; duration of antihypertensive effect (in words) (conscious SH rats [2]): long lasting effects; antihypertensive activity (conscious SH rats [2]; once daily, very low doses (for ex. 0.2 mg/kg/os)): pronounced and long lasting antihypertensive activity
16 | CCOC(=O)C1=C(CSCC2CCCN2)NC(C)=C(C(=O)OC)C1c1cccc([N+](=O)[O-])c1 (centres unmarked) [Compound 16d] |  |  | LD50 in mice, i.p. (mice; mouse, in vivo, ip): 1000 mg/kg; LD50 in mice, OS (mice; mouse, in vivo, po): 1000 mg/kg; antihypertensive activity (conscious SH rats [2]; 3.2 mg/kg): practically inactive
17 | CCOC(=O)C1=C(CSCCN)NC(C)=C(C(=O)OC)C1c1cccc(OC)c1 (centres unmarked) [Compound 26] | 59 | 82 | 
18 | CCOC(=O)C1=C(C)NC(CSCCNCCC#N)=C(C(=O)OCC)C1c1cccc([N+](=O)[O-])c1 (centres unmarked) [Compound 19] | 54 | 95 | 
19 | CCOC(=O)C1=C(CSCCN)NC(C)=C(C(=O)OC)C1c1cccc([N+](=O)[O-])c1 (racemic) [Compound 11, 2-(2-aminoethylthio)methyl-3-ethoxycarbonyl-5-methoxycarbonyl-4-(m-nitrophenyl)-6-methyl-1,4-dihydropyridine] | 22 | 52 | death of dogs (beagle dogs [4]): died after three days treatment; duration of antihypertensive effect (in words) (conscious SH rats [2]): long lasting effects; decrease of the mean blood pressure (--BP), maximum (conscious SH rats [2]): higher than 85 mmHg
20 | CCOC(=O)C1=C(CSCCN)NC(C)=C(C#N)C1c1cccc([N+](=O)[O-])c1 (centres unmarked) [Compound 22] | 82 | 611 | 

Row | Compound | LD50 (in vivo; ip) [mg/kg] | LD50 (in vivo; po) [mg/kg] | also measured
21 | CCOC(=O)C1=C(C)NC(CSCCN)=C(C(=O)OCC)C1c1cccc([N+](=O)[O-])c1 (centres unmarked) [Compound 10] | 20 | 21 | decrease of the mean blood pressure (--BP), maximum (conscious SH rats [2]): higher than 85 mmHg
22 | CCOC(=O)C1=C(CSCCN)NC(C)=C([N+](=O)[O-])C1c1cccc([N+](=O)[O-])c1 (centres unmarked) [Compound 21] | 108 | 451 | 
23 | CCOC(=O)C1=C(CSCCNC(C)=O)NC(C)=C(C(=O)OC)C1c1cccc([N+](=O)[O-])c1 (racemic) [rac 2-acetylamino ethyl-thio-methyl, reference compound] |  |  | duration of antihypertensive effect (in words) (conscious SH rats [2]): shorter lasting antihypertensive effect
24 | COC(=O)C1=C(C)NC(CSCCN)=C(C(=O)OC)C1c1cccc([N+](=O)[O-])c1 (centres unmarked) [Compound 25] | 25 | 53 | 
25 | CCCCNCCSCC1=C(C(=O)OCC)C(c2cccc([N+](=O)[O-])c2)C(C(=O)OC)=C(C)N1 (centres unmarked) [Compound 14] |  | 23 | LD50 in mice, i.p. (mice; mice, i.p.): 12 mg/kg
26 | CCCCNCCSCC1=C(C(=O)OCC)C(c2cccc([N+](=O)[O-])c2)C(C(=O)OC)=C(C)N1 (centres unmarked) [Compound 15] |  |  | LD50 in mice, i.p. (mice; mice, i.p.): 39 mg/kg; LD50 in mice, OS (mice; mice, oral (os)): 40 mg/kg; death of dogs (beagle dogs [4]): died after three days treatment
27 | NNc1nncc2ccccc12 [hydralazine] |  |  | reflex tachicardia (other antihypertensive agents) (conscious SH rats [5]): often observed
28 | CCOC(=O)C1=C(CSCCN)NC(C)=C(C(=O)OC)C1c1cccc(C#N)c1 (centres unmarked) [Compound 28] | 43 | 34 | 
29 | CCOC(=O)C1=C(CSCCNC=O)NC(C)=C(C(=O)OC)C1c1ccccc1SC (centres unmarked) [N-formylation of compound 8] |  | 90 | 
30 | CCOC(=O)C1=C(CSCCCN)NC(C)=C(C(=O)OC)C1c1cccc([N+](=O)[O-])c1 (centres unmarked) [Compound 17] | 16 | 22 | 
31 | CCOC(=O)C1=C(CSCCN)NC(C)=C(C(=O)OC)C1c1ccccc1Cl (centres unmarked) [Compound 6, 2-(2-aminoethylthio)methyl-3-ethoxycarbonyl-5-methoxycarbonyl-4-(2-chlorophenyl)-6-methyl-1,4-dihydropyridine] | 4 | 5 | decrease of the mean blood pressure (--BP), maximum (conscious SH rats [2]): higher than 85 mmHg
32 | CCOC(=O)C1=C(CSCC(N)c2ccccc2)NC(C)=C(C(=O)OC)C1c1cccc([N+](=O)[O-])c1 (centres unmarked) [Compound 29] | 46 | 77 | 
33 | CCOC(=O)C1=C(CSCCN)NC(C)=C(C(=O)OC)C1c1ccccc1 (centres unmarked) [Compound 1] | 31 | 33 | 
34 | CCOC(=O)C1=C(CSCCN)NC(C)=C(C(=O)OC(C)C)C1c1cccc([N+](=O)[O-])c1 (centres unmarked) [Compound 24] | 25 | 53 | 
35 | CCOC(=O)C1=C(CSCCN)NC(C)=C(C(=O)OC)C1c1ccccc1SC (centres unmarked) [Compound 8] | 5 | 8 | 
36 | CCOC(=O)C1=C(CSCC(N)CO)NC(C)=C(C(=O)OC)C1c1cccc([N+](=O)[O-])c1 (centres unmarked) [Compound 31] | 87 | 371 | 
37 | CCOC(=O)C1=C(CSCCN)NC(C)=C(C(=O)OC)C1c1cccc(Cl)c1 (centres unmarked) [Compound 7] | 23 | 40 | decrease of the mean blood pressure (--BP), maximum (conscious SH rats [2]): higher than 85 mmHg
38 | CCOC(=O)C1=C(CSCCN)NC(C)=C(C(=O)OC)C1c1cccc(C(F)(F)F)c1 (centres unmarked) [Compound 9] | 23 | 40 | 
39 | CCOC(=O)C1=C(C)NC(CSCCN)=C(C(=O)OCC)C1c1ccccc1Cl (centres unmarked) [Compound 5] | 9 | 12 | decrease of the mean blood pressure (--BP), maximum (conscious SH rats [2]): higher than 85 mmHg
40 | CCOC(=O)C1=C(CSCC(C)N)NC(C)=C(C(=O)OC)C1c1cccc([N+](=O)[O-])c1 (centres unmarked) [Compound 30] | 50 | 42 | 
